Data published in patent US8609635B2, “Fused tricyclic silyl compounds and methods of use thereof for the treatment of viral diseases” (priority 2010, dated 2013).
Where two headings read alike, the source gives them in different places.

Columns and labels:
HCV replicon gt1b_con1 = test: Cell-based HCV replicon assay (TaqMan), genotype 1b (Con1); conditions: replicon 1b (Con1), replicon RNA by TaqMan, day 3
Protocol: (§1) Measurement of inhibition by compounds of the present invention was performed using the HCV replicon system. Several different replicons encoding different HCV genotypes or mutations were used. In addition, potency measurements were made using different formats of the replicon assay, including different ways of measurements and different plating formats. See Jan M. Vrolijk et al., A replicons-based bioassay for the measurement of interferons in patients with chronic hepatitis C, 110 J. VIROLOGICAL METHODS 201 (2003); Steven S. Carroll et al., Inhibition of Hepatitis C Virus RNA Replication by 2′-Modified Nucleoside Analogs, 278(14) J. BIOLOGICAL […] 11979 (2003). However, the underlying principles are common to all of these determinations, and are outlined below.
(§2) Compounds of the present invention were assayed for cell-based anti-HCV activity using the following protocol. Replicon cells were seeded at 5000 cells/well in 96-well collagen I-coated Nunc plates in the presence of the test compound. Various concentrations of test compound, typically in 10 serial 2-fold dilutions, were added to the assay mixture, with the starting concentration ranging from 250 μM to 1 μM. The final concentration of DMSO was 0.5%, fetal bovine serum was 5%, in the assay media. Cells were harvested on day 3 by the addition of 1× cell lysis buffer (Ambion cat #8721). The replicon RNA level was measured using real time PCR (TaqMan® assay). The amplicon was located in 5B. The PCR primers were: 5B.2F, […] (SEQ. ID NO. 1); 5B.2R, […] (SEQ. ID NO. 2); the probe sequence was FAM-labeled […] (SEQ. ID NO. 3). GAPDH RNA was used as endogenous control and was amplified in the same reaction as NS5B (multiplex PCR) using primers and VIC-labeled probe recommended by the manufacturer (PE Applied Biosystem). The real-time RT-PCR reactions were run on ABI PRISM 7900HT Sequence Detection System using the following program: 48° C. for 30 minutes, 95° C. for 10 minutes, 40 cycles of 95° C. for 15 sec, 60° C. for 1 minute. The ΔCT values (CT5B-CTGAPDH) were plotted against the concentration of test compound and fitted to the sigmoid dose-response model using XLfit4 (MDL). […] Alternatively, to quantitate the absolute amount of replicon RNA, a standard curve was established by including serially diluted T7 transcripts of replicon RNA in the Taqman assay. All TaqMan® reagents were from PE Applied Biosystems. Such an assay procedure was described in detail in e.g. Malcolm et al., Antimicrobial Agents and Chemotherapy 50: 1013-1020 (2006).
(§3) Wherein gt1a_H77 was prepared as described in Yi et al., J Virol. 2004, 78(15):7904-15; gt1b_con1 was prepared as described in Lohmann et al., Science 1999, 285(5424):110-3; and gt2a_JFH was prepared as described in Kato et al., Gastroenterology. 2003, 125(6):1808-17. Chimeric replicons contain NS5A from patient isolates of genotypes 1a, 1b, 2b, 3a and 4a as indicated.

[1] = test system: HCV replicon 1a (Y93H) mutant; test: Cell-based HCV replicon assay (TaqMan), genotype 1a mutant Y93H; conditions: read-out: HCV replicon EC50 1a (Y93H)
Protocol: as §1, §2, §3

HCV replicon gt1a_H77 = test: Cell-based HCV replicon assay (TaqMan), genotype 1a (H77); conditions: replicon 1a (H77), replicon RNA by TaqMan, day 3
Protocol: as §1, §2, §3

HCV replicon gt2a_JFH = test: Cell-based HCV replicon assay (TaqMan), genotype 2a (JFH); conditions: replicon 2a (JFH), replicon RNA by TaqMan, day 3
Protocol: as §1, §2, §3

[2] = test system: HCV chimeric replicon with NS5A of genotype 3a (NC00982); test: Cell-based HCV replicon assay (TaqMan), chimeric replicon genotype 3a (NC00982); conditions: replicon RNA by TaqMan, day 3
Protocol: as §1, §2, §3

[3] = test system: HCV chimeric replicon with NS5A of genotype 4a (DQ41878); test: Cell-based HCV replicon assay (TaqMan), chimeric replicon genotype 4a (DQ41878); conditions: Hepatitis C virus, 72 h, read-out: HCV replicon EC50 4a (DQ41878)
Protocol: as §1, §2, §3

[4] = Hepatitis C virus, 72 h, read-out: HCV replicon EC50 3a (NC00982), chimeric replicon 3a (NC00982)

Structure (SMILES) | EC50 (HCV replicon gt1b_con1; Hepatitis C virus, 72 h) [nM] | EC50 ([1]; Hepatitis C virus, 72 h) [nM] | EC50 (HCV replicon gt1a_H77; Hepatitis C virus, 72 h) [nM] | EC50 (HCV replicon gt2a_JFH; Hepatitis C virus, 72 h) [nM] | EC50 [2, 4] [nM] | EC50 [3] [nM] | EC50 (HCV replicon gt1b_con1) [nM] | EC50 ([1]; replicon 1a mutant Y93H, replicon RNA by TaqMan, day 3) [nM] | EC50 (HCV replicon gt1a_H77) [nM] | EC50 (HCV replicon gt2a_JFH) [nM] | EC50 ([2]; chimeric replicon 3a (NC00982), read-out: HCV replicon EC50 3a (NC00982)) [nM]
COC(=O)N[C@H](C(=O)N1C[Si](C)(C)C[C@H]1c1ncc(-c2ccc(-c3ccc4c(ccc5nc([C@@H]6CC(F)(F)CN6C(=O)[C@@H](NC(=O)OC)C(C)C)[nH]c54)c3)cn2)[nH]1)C(C)C [Compound 72] | 0.004 | 246 | 0.1 | 0.496 | 2.41 | – | – | – | – | – | –
COC(=O)N[C@H](C(=O)N1C[Si](C)(C)C[C@H]1c1ncc(-c2ccc(-c3ccc4c(ccc5nc([C@@H]6CCCN6C(=O)[C@@H](NC(=O)OC)C(C)C)[nH]c54)c3)cc2-c2ccncc2)[nH]1)C(C)C [Compound 51] | 0.05 | 8420 | > 1 | > 10 | > 100 | – | – | – | – | – | –
COC(=O)NC(C(=O)N1CCCC1c1ncc(-c2ccc(-c3ccc4c(ccc5nc([C@@H]6C[Si](C)(C)CN6C(=O)C(NC(=O)OC)C(C)C)[nH]c54)c3)cc2)[nH]1)C(C)C (stereo partly drawn) [Compound 1] | 0.003 | – | 0.003 | 0.003 | 0.26 | 0.067 | – | – | – | – | –
COC(=O)N[C@H](C(=O)N1C[Si](C)(C)C[C@H]1c1ncc(-c2ccc(-c3ccc4c(ccc5nc([C@@H]6CC(F)(F)CN6C(=O)[C@@H](NC(=O)OC)C(C)C)[nH]c54)c3)cc2F)[nH]1)C(C)C [Compound 71] | < 0.002 | 188 | 0.12 | 0.45 | 0.9 | – | – | – | – | – | –
COC(=O)N[C@H](C(=O)N1C[Si](C)(C)C[C@@H]1c1nc2ccc3cc(-c4ccc(-c5cnc([C@@H]6CC(C)(C)CN6C(=O)[C@@H](NC(=O)OC)C(C)C)[nH]5)cc4)ccc3c2[nH]1)C(C)C [Compound 79] | 0.012 | 351 | 0.127 | 0.315 | 4.4 | 0.45 | – | – | – | – | –
COC(=O)N[C@H](C(=O)N1CCS(=O)(=O)CC1c1ncc(-c2ccc(-c3ccc4c(ccc5nc([C@@H]6C[Si](C)(C)CN6C(=O)[C@@H](NC(=O)OC)C(C)C)[nH]c54)c3)cc2)[nH]1)C(C)C (stereo partly drawn) [Compound 67] | 0.011 | 380 | 0.19 | 0.16 | 5 | 0.5 | – | – | – | – | –
COC(=O)NC(C(=O)N1C[Si](C)(C)CC1c1ncc(-c2ccc(-c3ccc4c(ccc5nc([C@@H]6CCCN6C(=O)C(NC(=O)OC)C(C)C)[nH]c54)c3)cc2)[nH]1)C(C)C (stereo partly drawn) [Compound 2] | 0.004 | – | 0.01 | 0.019 | 0.05 | – | – | – | – | – | –
COC(=O)N[C@H](C(=O)N1C[Si]2(CCCC2)C[C@H]1c1ncc(-c2ccc(-c3ccc4c(ccc5nc([C@@H]6CCCN6C(=O)[C@@H](NC(=O)OC)C(C)C)[nH]c54)c3)cc2)[nH]1)C(C)C [Compound 61] | 0.005 | 350 | 0.06 | 0.005 | 0.2 | 0.076 | – | – | – | – | –
COC(=O)N[C@H](C(=O)N1C[Si](C)(C)C[C@H]1c1ncc(-c2ccc(-c3ccc4c(ccc5nc([C@@H]6CCCN6C(=O)[C@@H](NC(=O)OC)C(C)C)[nH]c54)c3)cc2OC)[nH]1)C(C)C [Compound 46] | 0.004 | 497 | 0.26 | 0.6 | 2.4 | – | – | – | – | – | –
COC(=O)NC(C(=O)N1C[Si](C)(C)CC1c1ncc(-c2ccc(-c3ccc4c(ccc5nc([C@@H]6C7CCC(C7)N6C(=O)C(NC(=O)OC)C(C)C)[nH]c54)c3)cc2)[nH]1)C(C)C (stereo partly drawn) [Compound 16] | 0.004 | 146 | 0.04 | 0.06 | 0.23 | – | – | – | – | – | –
COC(=O)N[C@H](C(=O)N1CC(O)C[C@H]1c1ncc(-c2ccc(-c3ccc4c(ccc5nc([C@@H]6C[Si](C)(C)CN6C(=O)[C@@H](NC(=O)OC)C(C)C)[nH]c54)c3)cc2)[nH]1)C(C)C (stereo partly drawn) [Compound 65] | 0.004 | 44 | 0.06 | 0.3 | 1.7 | – | – | – | – | – | –
COC(=O)NC(C(=O)N1C[Si](C)(C)CC1c1ncc(-c2ccc(-c3ccc4c(ccc5nc([C@@H]6CCCN6C(=O)C(NC(=O)OC)C(C)C)[nH]c54)c3)s2)[nH]1)C(C)C (stereo partly drawn) [Compound 20] | 0.004 | 921 | 0.14 | 0.3 | 0.26 | – | – | – | – | – | –
COC(=O)N[C@H](C(=O)N1C[Si](C)(C)C[C@H]1c1ncc(-c2ccc(-c3ccc4c(ccc5nc([C@@H]6CCCN6C(=O)[C@@H](NC(=O)OC)C(C)C)[nH]c54)c3)nc2)[nH]1)C(C)C [Compound 49] | 0.014 | 185 | 0.04 | 0.037 | 0.2 | – | – | – | – | – | –
COC(=O)N[C@H](C(=O)N1C[Si](C)(C)C[C@H]1c1ncc(-c2ccc(-c3ccc4c(ccc5nc([C@@H]6CCCN6C(=O)[C@@H](NC(=O)OC)C(C)C)[nH]c54)c3)cc2C2CC2)[nH]1)C(C)C [Compound 47] | 0.007 | 1600 | 0.4 | 1.7 | 5.5 | – | – | – | – | – | –
COC(=O)N[C@H](C(=O)N1C[Si](C)(C)C[C@H]1c1ncc(-c2ccc(-c3ccc4c(ccc5nc([C@@H]6CCCN6C(=O)[C@@H](NC(=O)OC)C(C)C)[nH]c54)c3)cc2OCCOC(C)=O)[nH]1)C(C)C [Compound 45] | 0.009 | 2640 | > 1 | > 10 | 52 | – | – | – | – | – | –
COC(=O)N[C@H](C(=O)N1C[Si](C)(C)C[C@H]1c1ncc(-c2ccc(-c3ccc4c(ccc5nc([C@@H]6CCCN6C(=O)[C@@H](NC(=O)OC)C(C)C)[nH]c54)c3)cc2-c2cccs2)[nH]1)C(C)C [Compound 50] | 0.008 | 1150 | 0.505 | 1.62 | 3 | – | – | – | – | – | –
COC(=O)N[C@H](C(=O)N1C[Si](C)(C)C[C@H]1c1ncc(-c2ccc(-c3ccc4c(ccc5nc([C@@H]6CCCN6C(=O)[C@@H](NC(=O)OC)C(C)C)[nH]c54)c3)cc2OCCO)[nH]1)C(C)C [Compound 44] | 0.007 | 1390 | > 1 | > 10 | 31 | – | – | – | – | – | –
COC(=O)N[C@H](C(=O)N1C[Si](C)(C)C[C@H]1c1ncc(-c2ccc(-c3ccc4c(ccc5nc([C@@H]6CCCN6C(=O)[C@@H](NC(=O)OC)C(C)C)[nH]c54)c3)cc2F)[nH]1)C(C)C [Compound 48] | 0.004 | 329 | 0.05 | 0.07 | 0.25 | – | – | – | – | – | –
COC(=O)NC(C(=O)N1C2CCC(C2)C1c1ncc(-c2ccc(-c3ccc4c(ccc5nc([C@@H]6C[Si](C)(C)CN6C(=O)C(NC(=O)OC)C(C)C)[nH]c54)c3)cc2)[nH]1)C(C)C (stereo partly drawn) [Compound 15] | 0.011 | 131 | 0.088 | 0.12 | 1 | – | – | – | – | – | –
COC(=O)N[C@H](C(=O)N1CC(F)(F)C[C@H]1c1ncc(-c2ccc3oc(-c4ccc5c(ccc6nc([C@@H]7C[Si](C)(C)CN7C(=O)[C@@H](NC(=O)OC)C(C)C)[nH]c65)c4)cc3c2)[nH]1)C(C)C [Compound 42] | – | – | – | – | – | – | 0.005 | 103 | 0.012 | > 10 | 11.4
